Measurements as given in US8022206B2 (OSI Pharmaceuticals, LLC, priority 2008, dated 2011).

Legend:
RON (human) = RON (human) (Homo sapiens, UniProt Q04912); assay: RON (human) AlphaScreen kinase assay, Km of ATP; assay type: biochemical; conditions: AlphaScreen, Km of ATP; read-out: RON biochemical IC50
Outline: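 Reaction was started with enzyme and run 30 min at RT. PT66 donor/acceptor beads in an EDTA-containing Tris pH 7.5 buffer were then added, and the signal was read after 1 h.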

MET (human) = MET (human) (Homo sapiens, UniProt P08581); assay: MET (human) AlphaScreen kinase assay, Km of ATP; assay type: biochemical; conditions: AlphaScreen, Km of ATP; read-out: Met biochemical IC50
Outline: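 Human MET at lot-optimised concentration in 50 mM Tris pH 7.4 buffer with 1 mM DTT, compound at 1% DMSO final; enzyme starts the reaction, 60 min at RT.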

Chain of MET (human) (P08581 25-1390): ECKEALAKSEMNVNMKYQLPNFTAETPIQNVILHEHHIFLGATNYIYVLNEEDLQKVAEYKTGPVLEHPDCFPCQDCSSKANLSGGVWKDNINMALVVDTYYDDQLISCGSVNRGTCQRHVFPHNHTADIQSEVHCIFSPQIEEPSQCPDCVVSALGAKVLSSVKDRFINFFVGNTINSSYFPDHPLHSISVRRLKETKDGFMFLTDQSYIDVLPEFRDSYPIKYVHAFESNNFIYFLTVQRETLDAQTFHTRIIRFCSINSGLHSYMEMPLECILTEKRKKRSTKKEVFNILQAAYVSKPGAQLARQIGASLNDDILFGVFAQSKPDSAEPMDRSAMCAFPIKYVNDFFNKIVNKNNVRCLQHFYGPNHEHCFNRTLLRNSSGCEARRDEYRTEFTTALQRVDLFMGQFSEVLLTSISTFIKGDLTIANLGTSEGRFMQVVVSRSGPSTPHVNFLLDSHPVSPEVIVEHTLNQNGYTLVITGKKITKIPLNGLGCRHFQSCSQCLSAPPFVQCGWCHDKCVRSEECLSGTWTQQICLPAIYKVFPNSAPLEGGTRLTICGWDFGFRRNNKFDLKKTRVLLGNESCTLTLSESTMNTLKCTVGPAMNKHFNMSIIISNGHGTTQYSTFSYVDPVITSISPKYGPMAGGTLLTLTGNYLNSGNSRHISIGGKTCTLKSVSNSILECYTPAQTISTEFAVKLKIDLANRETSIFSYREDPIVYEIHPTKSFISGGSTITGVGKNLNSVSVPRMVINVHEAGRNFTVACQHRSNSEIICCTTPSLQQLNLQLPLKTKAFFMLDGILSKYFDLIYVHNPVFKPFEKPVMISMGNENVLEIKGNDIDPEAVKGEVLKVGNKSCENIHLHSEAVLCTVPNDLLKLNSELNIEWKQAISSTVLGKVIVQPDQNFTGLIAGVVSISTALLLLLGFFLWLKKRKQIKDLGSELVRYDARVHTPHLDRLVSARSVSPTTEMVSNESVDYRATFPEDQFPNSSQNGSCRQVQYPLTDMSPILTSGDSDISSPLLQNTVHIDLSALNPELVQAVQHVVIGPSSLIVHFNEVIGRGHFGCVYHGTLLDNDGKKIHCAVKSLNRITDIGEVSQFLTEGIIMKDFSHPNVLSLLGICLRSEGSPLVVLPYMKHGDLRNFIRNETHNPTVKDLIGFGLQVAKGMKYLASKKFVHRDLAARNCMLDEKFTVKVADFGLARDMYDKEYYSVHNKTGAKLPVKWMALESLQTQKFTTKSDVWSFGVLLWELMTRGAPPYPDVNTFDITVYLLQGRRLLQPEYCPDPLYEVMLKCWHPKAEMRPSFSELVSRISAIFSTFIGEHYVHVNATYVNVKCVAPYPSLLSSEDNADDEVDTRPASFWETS
Chain of RON (human) (Q04912 25-1400): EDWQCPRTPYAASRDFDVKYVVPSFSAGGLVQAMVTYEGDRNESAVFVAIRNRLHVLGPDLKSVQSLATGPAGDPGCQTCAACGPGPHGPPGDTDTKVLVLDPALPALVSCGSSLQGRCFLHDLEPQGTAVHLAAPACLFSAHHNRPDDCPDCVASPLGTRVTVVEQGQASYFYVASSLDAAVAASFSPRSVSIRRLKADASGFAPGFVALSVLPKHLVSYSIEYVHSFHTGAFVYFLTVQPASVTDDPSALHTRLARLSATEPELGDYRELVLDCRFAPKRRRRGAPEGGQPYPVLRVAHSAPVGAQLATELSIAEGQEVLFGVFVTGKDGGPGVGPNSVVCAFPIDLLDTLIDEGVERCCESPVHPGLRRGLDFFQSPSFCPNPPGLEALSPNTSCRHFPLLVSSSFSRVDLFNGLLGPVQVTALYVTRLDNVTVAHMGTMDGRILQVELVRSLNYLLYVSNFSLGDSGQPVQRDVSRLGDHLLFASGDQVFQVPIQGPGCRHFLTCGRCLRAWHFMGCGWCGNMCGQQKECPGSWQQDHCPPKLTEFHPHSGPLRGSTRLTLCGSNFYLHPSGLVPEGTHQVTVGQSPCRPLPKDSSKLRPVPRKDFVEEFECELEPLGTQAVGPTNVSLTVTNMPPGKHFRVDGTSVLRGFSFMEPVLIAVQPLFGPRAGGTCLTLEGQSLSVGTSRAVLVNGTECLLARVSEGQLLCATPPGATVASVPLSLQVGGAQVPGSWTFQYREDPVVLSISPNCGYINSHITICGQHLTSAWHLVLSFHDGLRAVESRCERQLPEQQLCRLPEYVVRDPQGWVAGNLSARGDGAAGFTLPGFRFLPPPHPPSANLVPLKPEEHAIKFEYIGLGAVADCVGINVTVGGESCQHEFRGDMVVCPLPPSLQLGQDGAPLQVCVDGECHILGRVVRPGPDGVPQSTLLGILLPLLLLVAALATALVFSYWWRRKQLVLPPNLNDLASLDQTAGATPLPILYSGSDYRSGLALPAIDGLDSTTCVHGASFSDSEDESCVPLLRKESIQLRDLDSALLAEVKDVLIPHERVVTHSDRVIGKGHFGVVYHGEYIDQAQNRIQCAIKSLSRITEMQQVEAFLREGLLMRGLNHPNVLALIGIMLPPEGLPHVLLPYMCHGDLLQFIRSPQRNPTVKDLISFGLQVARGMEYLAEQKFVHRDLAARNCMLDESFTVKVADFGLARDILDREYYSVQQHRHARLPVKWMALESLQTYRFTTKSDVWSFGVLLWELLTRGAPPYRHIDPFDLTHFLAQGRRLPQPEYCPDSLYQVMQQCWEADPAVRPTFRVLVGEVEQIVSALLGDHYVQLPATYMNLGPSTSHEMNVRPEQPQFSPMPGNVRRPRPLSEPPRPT

With `C[C@@H](Oc1c(N)ncc2c(-c3ccc(CO)cc3)coc12)c1c(Cl)ccc(F)c1Cl` [Example 64, (4-{6-Amino-7-[(R)-1-(2,6-dichloro-3-fluorophenyl)ethoxy]-furo[3,2-c]pyridin-3-yl}-phenyl)methanol] the IC50 (RON (human)) was 500 to 5000 nM and the IC50 (MET (human)) was 500 to 5000 nM.

For `CC(Oc1c(N)ncc2c(-c3cnn(C4CCNCC4)c3)coc12)c1c(F)ccc(F)c1Cl` (centres unmarked) [Example 379, 7-[1-(2-Chloro-3,6-difluorophenyl)ethoxy]-3-(1-piperidin-4-yl-1H-pyrazol-4-yl)furo[3,2-c]pyridin-6-ylamine], the IC50 (RON (human)) was less than 500 nM and the IC50 (MET (human)) was less than 500 nM.

`CC(=O)Nc1cccc(-c2coc3c(O[C@H](C)c4c(Cl)ccc(F)c4Cl)c(N)ncc23)c1` [Example 78, N-(3-{6-Amino-7-[(R)-1-(2,6-dichloro-3-fluorophenyl)ethoxy]-furo[3,2-c]pyridin-3-yl}phenyl)acetamide] showed an IC50 (RON (human)) of 500 to 5000 nM and an IC50 (MET (human)) of 500 to 5000 nM.

In the case of `CC(C)NC(=O)N1CC=C(c2coc3c(O[C@H](C)c4c(Cl)ccc(F)c4Cl)c(N)ncc23)CC1` [Example 149, 4-{6-Amino-7-[(1R)-1-(2,6-dichloro-3-fluorophenyl)ethoxy]furo[3,2-c]pyridin-3-yl}-N-(propan-2-yl)-3,6-dihydropyridine-1(2H)-carboxamide], the IC50 (RON (human)) is reported as 500 to 5000 nM and the IC50 (MET (human)) is reported as less than 500 nM.

`CC(C)N1CC=C(c2coc3c(O[C@H](C)c4c(Cl)ccc(F)c4Cl)c(N)ncc23)CC1` [Example 45, 7-[(R)-1-(2,6-Dichloro-3-fluorophenyl)-ethoxy]-3-(1-isopropyl-1,2,3,6-tetrahydropyridin-4-yl)-furo[3,2-c]pyridin-6-ylamine] was tested, and the IC50 (RON (human)) was less than 500 nM and the IC50 (MET (human)) was less than 500 nM.

`C[C@@H]1CN(C(=O)c2ccc(-c3coc4c(O[C@H](C)c5c(Cl)ccc(F)c5Cl)c(N)ncc34)cc2)C[C@H](C)O1` [Example 297, (4-{6-Amino-7-[(R)-1-(2,6-dichloro-3-fluorophenyl)ethoxy]-furo[3,2-c]pyridin-3-yl}phenyl)-(2,6-cis-dimethylmorpholin-4-yl)methanone] showed an IC50 (RON (human)) of 500 to 5000 nM and an IC50 (MET (human)) of 500 to 5000 nM.

Molecule `C[C@@H](Oc1c(N)ncc2c(C3=CCN(C(=O)C4(N)CC4)CC3)coc12)c1c(Cl)ccc(F)c1Cl` [Example 23, (1-Aminocyclopropyl)-(4-{6-amino-7-[(R)-1-(2,6-dichloro-3-fluorophenyl)-ethoxy]-furo[3,2-c]pyridin-3-yl}-3,6-dihydro-2H-pyridin-1-yl)-methanone] has an IC50 (RON (human)) of 500 to 5000 nM and an IC50 (MET (human)) of 500 to 5000 nM.

Molecule `C[C@@H](Oc1c(N)ncc2c(-c3csc(CN4CCC(O)C4)c3)coc12)c1c(Cl)ccc(F)c1Cl` (stereo partly drawn) [Example 307, 1-(4-{6-Amino-7-[(R)-1-(2,6-dichloro-3-fluorophenyl)-ethoxy]furo[3,2-c]pyridin-3-yl}thiophen-2-ylmethyl)pyrrolidin-3-ol] has an IC50 (RON (human)) of less than 500 nM and an IC50 (MET (human)) of less than 500 nM.

`C[C@@H](Oc1c(N)ncc2c(C3=CCN(C(=O)C4CCCCC4)CC3)coc12)c1c(Cl)ccc(F)c1Cl` [Example 16, (4-{6-Amino-7-[(R)-1-(2,6-dichloro-3-fluorophenyl)-ethoxy]-furo[3,2-c]pyridin-3-yl}-3,6-dihydro-2H-pyridin-1-yl)-cyclohexylmethanone] was tested, and the IC50 (RON (human)) was 500 to 5000 nM and the IC50 (MET (human)) was 500 to 5000 nM.

With `CC(Oc1c(N)ncc2c(-c3cnn(C4CCNCC4)c3)coc12)c1cc(F)cc(-c2cnn(C)c2)c1` (centres unmarked) [Example 452, 7-{1-[3-Fluoro-5-(1-methyl-1H-pyrazol-4-yl)phenyl]ethoxy}-3-(1-piperidin-4-yl-1H-pyrazol-4-yl)furo[3,2-c]pyridin-6-ylamine] the IC50 (RON (human)) was 500 to 5000 nM and the IC50 (MET (human)) was less than 500 nM.

For `CC(Oc1c(N)ncc2c(-c3cnn(C4CCNCC4)c3)coc12)c1nc2ccccc2[nH]1` (centres unmarked) [Example 403, 7-[1-(1H-Benzimidazol-2-yl)ethoxy]-3-(1-piperidin-4-yl-1H-pyrazol-4-yl)furo[3,2-c]pyridin-6-ylamine], the IC50 (RON (human)) was 500 to 5000 nM and the IC50 (MET (human)) was 500 to 5000 nM.

Work on `CC(Oc1c(N)ncc2c(-c3cnn(C4CCNCC4)c3)coc12)c1c(Cl)c(F)cc(OCCCN)c1Cl` (centres unmarked) [Example 155, 7-{1-[3-(3-Aminopropoxy)-2,6-dichloro-5-fluorophenyl]ethoxy}-3-[1-(piperidin-4-yl)-1H-pyrazol-4-yl]furo[3,2-c]pyridin-6-amine] yielded an IC50 (RON (human)) of less than 500 nM and an IC50 (MET (human)) of less than 500 nM.

`COCCNC(=O)c1ccc(-c2coc3c(O[C@H](C)c4c(Cl)ccc(F)c4Cl)c(N)ncc23)cc1` [Example 285, 4-{6-Amino-7-[(R)-1-(2,6-dichloro-3-fluorophenyl)ethoxy]furo[3,2-c]pyridin-3-yl}-N-(2-methoxyethyl)benzamide] gave an IC50 (RON (human)) of 500 to 5000 nM and an IC50 (MET (human)) of 500 to 5000 nM.

Work on `Cc1ccnc(C)c1C(C)Oc1c(N)ncc2c(-c3cnn(C4CCNCC4)c3)coc12` (centres unmarked) [Example 362, 7-[1-(2,4-Dimethylpyridin-3-yl)ethoxy]-3-(1-piperidin-4-yl-1H-pyrazol-4-yl)furo[3,2-c]pyridin-6-ylamine] yielded an IC50 (RON (human)) of 500 to 5000 nM and an IC50 (MET (human)) of less than 500 nM.

For `Nc1ncc2ccoc2c1OCc1ccc(NC(=O)c2cccn(-c3ccc(F)cc3)c2=O)cc1` [Example 461, 1-(4-Fluorophenyl)-2-oxo-1,2-dihydropyridine-3-carboxylic acid [4-(6-aminofuro[3,2-c]pyridin-7-yloxymethyl)phenyl]amide], the IC50 (RON (human)) was greater than 20000 nM and the IC50 (MET (human)) was 500 to 5000 nM.

For `C[C@@H](Oc1c(N)ncc2c(-c3cnn([C@H]4CCNC4)c3)coc12)c1c(Cl)ccc(F)c1Cl` [Example 161, 7-[(1R)-1-(2,6-dichloro-3-fluorophenyl)ethoxy]-3-{1-[(3S)-pyrrolidin-3-yl]-1H-pyrazol-4-yl}furo[3,2-c]pyridin-6-amine], the IC50 (RON (human)) was less than 500 nM and the IC50 (MET (human)) was less than 500 nM.

`C[C@@H](Oc1c(N)ncc2c(C3=CCN(C(=O)[C@H](N)c4ccccc4)CC3)coc12)c1c(Cl)ccc(F)c1Cl` [Example 262, (2R)-2-Amino-1-[4-{6-amino-7-[(1R)-1-(2,6-dichloro-3-fluoro-phenyl)ethoxy]furo[3,2-c]pyridin-3-yl}-3,6-dihydropyridin-1(2H)-yl]-2-phenylethanone] gave an IC50 (RON (human)) of less than 500 nM and an IC50 (MET (human)) of less than 500 nM.

`COc1ccc(CC(C)Oc2c(N)ncc3c(-c4cnn(C5CCNCC5)c4)coc23)cc1` (centres unmarked) [Example 431, 7-[2-(4-Methoxyphenyl)-1-methylethoxy]-3-(1-piperidin-4-yl-1H-pyrazol-4-yl)furo[3,2-c]pyridin-6-ylamine] gave an IC50 (RON (human)) of 500 to 5000 nM and an IC50 (MET (human)) of 500 to 5000 nM.

Work on `COC(=O)N1CCC(n2cc(-c3coc4c(O[C@H](C)c5c(Cl)ccc(F)c5Cl)c(N)ncc34)cn2)CC1` [Example 274, Methyl 4-(4-{6-Amino-7-[(1R)-1-(2,6-dichloro-3-fluorophenyl)ethoxy]furo[3,2-c]pyridin-3-yl}-1H-pyrazol-1-yl)piperidine-1-carboxylate] yielded an IC50 (RON (human)) of 500 to 5000 nM and an IC50 (MET (human)) of 500 to 5000 nM.

`N#CCc1ccccc1COc1c(N)ncc2c(-c3cnn(C4CCNCC4)c3)coc12` [Example 433, {2-[6-Amino-3-(1-piperidin-4-yl-1H-pyrazol-4-yl)furo[3,2-c]pyridin-7-yloxymethyl]phenyl}acetonitrile] was tested, and the IC50 (RON (human)) was 500 to 5000 nM and the IC50 (MET (human)) was 500 to 5000 nM.

Work on `CC(Oc1c(N)ncc2c(C3=CCN(C(N)=O)CC3)coc12)c1c(Cl)ccc(F)c1Cl` (centres unmarked) [Example 455, 4-{6-Amino-7-[1-(2,6-dichloro-3-fluorophenyl)ethoxy]furo[3,2-c]pyridin-3-yl}-3,6-dihydro-2H-pyridine-1-carboxamide] yielded an IC50 (RON (human)) of 500 to 5000 nM and an IC50 (MET (human)) of less than 500 nM.

For `COC(=O)c1coc2c(O[C@H](C)c3c(Cl)ccc(F)c3Cl)c(N)ncc12` [Example 175, 6-Amino-7-[(R)-1-(2,6-dichloro-3-fluorophenyl)ethoxy]furo[3,2-c]pyridine-3-carboxylic acid methyl ester], the IC50 (RON (human)) was 5000 to 20000 nM and the IC50 (MET (human)) was 500 to 5000 nM.

`CCCN1CC=C(c2coc3c(O[C@H](C)c4c(Cl)ccc(F)c4Cl)c(N)ncc23)CC1` [Example 42, 7-[(R)-1-(2,6-Dichloro-3-fluorophenyl)-ethoxy]-3-(1-propyl-1,2,3,6-tetrahydropyridin-4-yl)-furo[3,2-c]pyridin-6-ylamine] gave an IC50 (RON (human)) of less than 500 nM and an IC50 (MET (human)) of less than 500 nM.

`C[C@@H](Oc1c(N)ncc2c(C(=O)NC3CCN(C(=O)OC(C)(C)C)CC3)coc12)c1c(Cl)ccc(F)c1Cl` [Example 181, 4-({6-Amino-7-[(R)-1-(2,6-dichloro-3-fluorophenyl)ethoxy]furo[3,2-c]pyridine-3-carbonyl}-amino)-piperidine-1-carboxylic acid tert-butyl ester] showed an IC50 (RON (human)) of 5000 to 20000 nM and an IC50 (MET (human)) of 500 to 5000 nM.

With `C[C@@H](Oc1c(N)ncc2c(C3=CCN(C(=O)[C@H](O)C(F)(F)F)CC3)coc12)c1c(Cl)ccc(F)c1Cl` [Example 269, (2S)-1-[4-{6-Amino-7-[(1R)-1-(2,6-dichloro-3-fluorophenyl)ethoxy]furo[3,2-c]pyridin-3-yl}-3,6-dihydropyridin-1(2H)-yl]-3,3,3-trifluoro-2-hydroxypropan-1-one] the IC50 (RON (human)) was 500 to 5000 nM and the IC50 (MET (human)) was 500 to 5000 nM.

`C[C@@H]1CN(C(=O)N2CC=C(c3coc4c(O[C@H](C)c5c(Cl)ccc(F)c5Cl)c(N)ncc34)CC2)C[C@H](C)O1` [Example 30, (4-{6-Amino-7-[(R)-1-(2,6-dichloro-3-fluorophenyl)-ethoxy]-furo[3,2-c]pyridin-3-yl}-3,6-dihydro-2H-pyridin-1-yl)-((2R,6S)-2,6-dimethylmorpholin-4-yl)-methanone] gave an IC50 (RON (human)) of 500 to 5000 nM and an IC50 (MET (human)) of 500 to 5000 nM.

`C[C@@H](Oc1c(N)ncc2c(C3=CC4CCC(C3)N4)coc12)c1c(Cl)ccc(F)c1Cl` (stereo partly drawn) [Example 153, 3-(8-Azabicyclo[3.2.1]oct-2-en-3-yl)-7-[(1R)-1-(2,6-dichloro-3-fluorophenyl)ethoxy]furo[3,2-c]pyridin-6-amine] was tested, and the IC50 (RON (human)) was 500 to 5000 nM and the IC50 (MET (human)) was less than 500 nM.

Molecule `C[C@@H](Oc1c(N)ncc2c(C3=CCN(CC(=O)N4CCC(O)C4)CC3)coc12)c1c(Cl)ccc(F)c1Cl` (stereo partly drawn) [Example 203, 2-(4-{6-Amino-7-[(R)-1-(2,6-dichloro-3-fluorophenyl)ethoxy]-furo[3,2-e]pyridin-3-yl}-3,6-dihydro-2H-pyridin-1-yl)-1-(3-hydroxypyrrolidin-1-yl)ethanone] has an IC50 (RON (human)) of 500 to 5000 nM and an IC50 (MET (human)) of less than 500 nM.
